Reference: ChEMBL document CHEMBL5543140 (J Med Chem, 2024)
Active and inactive are the calls of the source. The calls are words filed in the database; no cut-off is given here.

Legend:
[1] = Ex vivo binding in C57BL/6J mouse brain frontal cortex assessed as specific binding [3H]Cimbi-36 at 1 mg/kg, sc measured after 15 mins by liquid scintillation counting analysis (reference value: 1092 +/- 53); format: functional; conditions: 0.25 h
[2] = tested on: Hippocampus; assay: Induction of neuroplasticity in C57BL/6J mouse assessed as increase in c-Fos mRNA expression in brain hippocampus at 3 mg/kg, sc single dose by RT-PCR analysis; format: functional, organism-based
[3] = tested on: Mus musculus; assay: Locomotor activity in C57BL/6J mouse assessed as distance traveled at 10 mg/kg, po measured for 15 to 25 mins (reference value: 1710 +/- 120 cm) by Ethovision tracking system; format: functional; conditions: time 15-25 min
[4] = molecular target: T1, 5-hydroxytryptamine receptor 1A (Homo sapiens) (UniProt P08908); assay: Agonist activity at human 5-HT1A receptor expressed in HEK293T cells co-transfected with 22F-Glosensor assessed as maximal inhibition of cAMP production measured after 30 mins incubation by Microbeta2Micro-plate counter analysis relative to control; format: functional, cell-based; conditions: filed as agonist
T1 sequence (whole entry): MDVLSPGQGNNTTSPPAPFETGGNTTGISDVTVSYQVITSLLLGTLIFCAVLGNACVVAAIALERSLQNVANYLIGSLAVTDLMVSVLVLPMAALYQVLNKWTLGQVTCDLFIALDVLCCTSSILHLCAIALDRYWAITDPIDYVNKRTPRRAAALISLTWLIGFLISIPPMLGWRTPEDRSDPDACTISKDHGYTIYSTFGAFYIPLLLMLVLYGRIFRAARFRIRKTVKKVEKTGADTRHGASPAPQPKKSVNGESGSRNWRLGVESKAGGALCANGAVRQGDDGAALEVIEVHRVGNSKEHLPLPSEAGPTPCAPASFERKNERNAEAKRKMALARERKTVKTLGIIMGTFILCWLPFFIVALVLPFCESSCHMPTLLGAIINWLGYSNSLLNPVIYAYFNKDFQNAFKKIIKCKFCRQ

[5] = MRTlast in Wistar rat brain at 5 mg/kg, po measured upto 48 hrs; format: ADME, organism-based
[6] = Ex vivo binding in C57BL/6J mouse brain frontal cortex assessed as inhibition of [3H]Cimbi-36 binding at 1 mg/kg, sc measured after 100 mins by liquid scintillation counting analysis (reference value: 0%); format: functional; conditions: 1.667 h
[7] = AUClast in male Sprague-Dawley rat CSF at 1 mg/kg, iv measured upto 8 hrs by LC-MS/MS analysis; format: ADME, organism-based, Cerebrospinal fluid
[8] = Metabolic stability in rat liver microsomes assessed as half life at 1 uM incubated for 120 mins in presence of NADPH; format: ADME, Microsome
[9] = Metabolic stability in mouse liver S9 fractions assessed as half life; format: ADME, subcellular; conditions: liver S9 fraction
[10] = Ex vivo binding in C57BL/6J mouse brain frontal cortex assessed as inhibition of [3H]Cimbi-36 binding at 1 mg/kg, sc measured after 10 mins by liquid scintillation counting analysis (reference value: 0%); format: functional
[11] = molecular target: Muscarinic acetylcholine receptor M4 (Homo sapiens) (UniProt P08173); assay: Displacement of [3H]4-DAMP from human recombinant muscarinic M4 receptor expressed in HEK293 cells at 10 uM incubated for 60 mins by radiometric based scintillation counter assay relative to control; format: cell-based
[12] = Cmax in male Sprague-Dawley rat brain at 1 mg/kg, iv measured upto 8 hrs by LC-MS/MS analysis; format: ADME, organism-based
[13] = Ex vivo binding in C57BL/6J mouse brain frontal cortex assessed as inhibition of [3H]Cimbi-36 binding at 1 mg/kg, sc measured after 220 mins by liquid scintillation counting analysis (reference value: 0%); format: functional; conditions: 3.667 h
[14] = Drug metabolism in human hepatocytes at 10 uM by HRAMS analysis; format: ADME, cell-based, Hepatocyte
[15] = Half life in beagle dog at 0.4 mg/kg, iv measured upto 24 hrs; format: ADME, organism-based, Canis lupus familiaris; conditions: in vivo
[16] = AUClast in Wistar rat brain at 1 mg/kg, iv measured upto 48 hrs; format: ADME, organism-based
[17] = Tmax in male Sprague-Dawley rat plasma at 1 mg/kg, iv measured upto 8 hrs by LC-MS/MS analysis; format: ADME, organism-based
[18] = tested on: Mus musculus; assay: Locomotor activity in C57BL/6J mouse assessed as distance traveled at 3 mg/kg, po measured for 15 to 25 mins (reference value: 1710 +/- 120 cm) by Ethovision tracking system; format: functional; conditions: time 15-25 min
[19] = Metabolic stability in human liver microsomes assessed as half life at 1 uM incubated for 120 mins in presence of NADPH; format: ADME, Microsome
[20] = MRTinf in male Sprague-Dawley rat plasma at 1 mg/kg, iv measured upto 8 hrs by LC-MS/MS analysis; format: ADME, organism-based
[21] = Oral bioavailability in beagle dog at 2 mg/kg measured upto 24 hrs; format: ADME, organism-based, Canis lupus familiaris; conditions: in vivo
[22] = Ex vivo binding in C57BL/6J mouse brain frontal cortex assessed as specific binding [3H]Cimbi-36 at 1 mg/kg, sc measured after 360 mins by liquid scintillation counting analysis (reference value: 1092 +/- 53); format: functional; conditions: 6 h
[23] = molecular target: 5-hydroxytryptamine receptor 3A (Homo sapiens) (UniProt P46098); assay: Binding affinity to human 5-HT3 receptor (unknown origin) at 10 uM by radioligand displacement assay
[24] = MRTlast in Wistar rat plasma at 1 mg/kg, iv measured upto 48 hrs; format: ADME, organism-based
[25] = AUClast in beagle dog at 2 mg/kg, po measured upto 24 hrs; format: ADME, organism-based, Canis lupus familiaris; conditions: in vivo
[26] = CSF to brain ratio in male Sprague-Dawley rat at 1 mg/kg, iv measured upto 8 hrs by LC-MS/MS analysis; format: ADME, organism-based; conditions: in vivo
[27] = Renal clearance in beagle dog at 0.4 mg/kg, iv measured upto 24 hrs; format: ADME, organism-based, Canis lupus familiaris; conditions: in vivo
[28] = Ex vivo binding in C57BL/6J mouse brain frontal cortex assessed as inhibition of [3H]Cimbi-36 binding at 1 mg/kg, sc measured after 15 mins by liquid scintillation counting analysis (reference value: 0%); format: functional; conditions: 0.25 h
[29] = AUCinf in beagle dog at 2 mg/kg, po measured upto 24 hrs; format: ADME, organism-based, Canis lupus familiaris; conditions: in vivo
[30] = tested on: Mus musculus; assay: Psychedelic effect in C57BL/6J mouse assessed as number of 5-HT2A receptor dependent head-twitch responses by visual observation at 3 mg/kg, sc measured after 24 hrs; format: functional
[31] = molecular target: T2, 5-hydroxytryptamine receptor 7 (Homo sapiens, UniProt P34969); assay: Displacement of [3H]LSD from 5-HT7 receptor (unknown origin) assessed as inhibition binding
[32] = molecular target: Adrenergic receptor alpha-2 (Rattus norvegicus) (UniProt P22086+P19328+P22909); assay: Displacement of [3H]RX 821002 from rat cerebral cortex alpha2 adrenergic receptor assessed as remaining activity at 10 uM after 60 mins by scintillation counting method relative to control
[33] = tested on: Mus musculus; assay: Psychedelic effect in C57BL/6J mouse assessed as induction of 5-HT2A receptor dependent maximal head-twitch responses by visual observation at 1 mg/kg, sc measured after 24 hrs; format: functional, organism-based
[34] = molecular target: T2, 5-hydroxytryptamine receptor 7; assay: Displacement of [3H]LSD from 5-HT7 receptor (unknown origin) assessed as inhibition binding at 10 uM relative to control
[35] = Half life in Wistar rat plasma at 5 mg/kg, po measured upto 48 hrs; format: ADME, organism-based

T2 sequence (P34969 whole entry): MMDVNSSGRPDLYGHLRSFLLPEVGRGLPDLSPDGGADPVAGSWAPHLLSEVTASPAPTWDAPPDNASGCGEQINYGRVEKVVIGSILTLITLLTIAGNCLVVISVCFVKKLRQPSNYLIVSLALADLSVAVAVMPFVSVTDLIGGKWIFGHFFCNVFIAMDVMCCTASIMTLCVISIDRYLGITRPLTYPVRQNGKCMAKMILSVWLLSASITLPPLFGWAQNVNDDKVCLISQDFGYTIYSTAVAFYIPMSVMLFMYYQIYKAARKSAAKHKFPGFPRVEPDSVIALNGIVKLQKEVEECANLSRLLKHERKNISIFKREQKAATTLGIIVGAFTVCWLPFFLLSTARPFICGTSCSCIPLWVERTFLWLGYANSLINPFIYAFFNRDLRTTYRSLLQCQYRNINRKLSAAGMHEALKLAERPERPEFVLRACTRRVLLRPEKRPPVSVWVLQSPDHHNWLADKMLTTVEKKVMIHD
Chain of Muscarinic acetylcholine receptor M4 (Homo sapiens) (P08173 whole entry): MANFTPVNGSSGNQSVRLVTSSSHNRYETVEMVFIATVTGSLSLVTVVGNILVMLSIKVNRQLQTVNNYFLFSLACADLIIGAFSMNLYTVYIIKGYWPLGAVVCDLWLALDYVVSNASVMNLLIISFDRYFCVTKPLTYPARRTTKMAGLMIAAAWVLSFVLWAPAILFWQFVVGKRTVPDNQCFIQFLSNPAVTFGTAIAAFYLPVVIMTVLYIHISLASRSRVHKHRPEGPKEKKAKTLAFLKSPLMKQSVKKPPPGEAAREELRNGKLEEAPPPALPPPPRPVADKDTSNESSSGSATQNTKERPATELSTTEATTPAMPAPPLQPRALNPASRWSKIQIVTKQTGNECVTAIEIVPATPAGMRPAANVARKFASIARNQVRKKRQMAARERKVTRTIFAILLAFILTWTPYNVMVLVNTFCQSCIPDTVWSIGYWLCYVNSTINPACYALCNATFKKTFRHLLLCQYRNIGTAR
Chain of 5-hydroxytryptamine receptor 3A (Homo sapiens) (P46098 whole entry): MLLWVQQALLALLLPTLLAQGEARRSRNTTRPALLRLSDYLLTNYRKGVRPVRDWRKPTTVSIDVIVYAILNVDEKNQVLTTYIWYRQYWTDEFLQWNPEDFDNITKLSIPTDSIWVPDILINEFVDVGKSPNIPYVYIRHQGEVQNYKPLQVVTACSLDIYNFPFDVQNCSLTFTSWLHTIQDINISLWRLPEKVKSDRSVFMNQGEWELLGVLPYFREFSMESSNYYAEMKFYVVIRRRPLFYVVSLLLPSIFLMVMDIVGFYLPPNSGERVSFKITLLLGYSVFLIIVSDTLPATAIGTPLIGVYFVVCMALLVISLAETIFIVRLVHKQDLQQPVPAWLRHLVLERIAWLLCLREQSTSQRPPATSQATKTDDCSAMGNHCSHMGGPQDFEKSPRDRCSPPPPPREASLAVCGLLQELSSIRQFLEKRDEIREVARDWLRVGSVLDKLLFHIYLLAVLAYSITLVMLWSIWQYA

Structure (SMILES): COc1cc([Se]C(F)(F)F)c(OC)cc1CCN.Cl
- Activity [1]: 971
- Activity [2]: inactive
- Activity [3]: 1974 cm
- Emax [4]: 92%
- MRT last at 48 h [5]: 3.3 h
- inhibition in vivo at 1 mg/kg [6]: 25%
- AUC(0-t) at 8 h [7]: 49.9 ng·h/mL
- half-life at 1 µM [8]: 0.917 h
- half-life [9]: > 2 h
- inhibition in vivo at 1 mg/kg [10]: 9%
- inhibition [11]: 86%
- Cmax [12]: 1490 ng/mL
- inhibition in vivo at 1 mg/kg [13]: 27%
- Drug metabolism [14]: Metabolite_Notdetected
- half-life [15]: 4.31 h
- AUC(0-t) at 48 h [16]: 2910 ng·h/mL
- Tmax [17]: 4.98 min
- Activity [18]: 3008 cm
- half-life at 1 µM [19]: > 2 h
- MRT inf [20]: 1.19 h
- bioavailability [21]: 138%
- Activity [22]: 820
- Activity [23]: inactive
- MRT last at 48 h [24]: 0.62 h
- AUC(0-t) at 24 h [25]: 2720 ng·h/mL
- Ratio [26]: 0.016
- CL renal at 24 h [27]: 0.6 mL/min/kg
- inhibition in vivo at 1 mg/kg [28]: 11%
- AUC(0-inf) [29]: 2970 ng·h/mL
- Activity [30]: 25
- Ki [31]: 4.92 µM
- Activity [32]: 97%
- Activity [33]: inactive
- inhibition [34]: 86%
- half-life [35]: 3.53 h
